Entries after “also recorded” stand apart in the source; their conditions may differ.
How the values were obtained:
Dehalococcoides [1] = assay: qRT-PCR of Dehalococcoides 16S rRNA genes in BDI cultures; assay type: cell-based; conditions: for effect on growth of Dehalococcoides in BDI cultures: 1.5 μM TCC or 35 μM TCS; for Dehalococcoides 16S rRNA gene copies, day 27 / Dehalococcoides 16S rRNA gene copies, initial: BDI with 1.5 μM TCC or 35 μM TCS
Description: (§1) Quantitative real-time PCR (qRT-PCR) was performed for enumeration of general 16S rRNA genes and Dehalococcoides 16S rRNA genes in culture DehaloR̂2 and Bio-Dechlor INOCULUM. The primers used for general 16S rRNA genes were Bac1055F (5′-ATG GYT GTC GTC ACCT-3′) and Bac1392R (5′-ACG GGC GGT GTG TAC-3′) (Ritalahti et al., 2006), and the probe was Bac16sTaq (FAM-CAA CGA GCG CAA CCC/3-BHQ-1/). The final volume of PCR reactions was 10 μL, and the final concentration of each chemical in a single reaction tube was: 1× RealMasterMix (Fisher Scientific, Pittsburgh, Pa.), 300 nM Probe, 300 nM each Primer, and 130 nM DNA samples. The PCR conditions were as follows: 2 min at 95° C. followed by 40 cycles of 10 s at 95° C., 20 s at 56° C. and 20 s at 68° C. The primers used for Dehalococcoides 16S rRNA genes were Dhc1200F (5′-CTGGAGCTAATCCCCAAAGCT-3′) and Dhc1271R (5′-CAA CTT CAT GCA GGC GGG-3′), and the probe was Dhc1240Pr (FAM-TCCTCAGTTCGGATTGCAGGC TGAA/3-BHQ-1) (He et al., 2003b). The final volume of PCR reactions was 10 μL, and the final concentration of each chemical in a single reaction tube was: 1× RealMasterMix (Fisher Scientific, Pittsburgh, Pa.), 200 nM Probe, 700 nM each Primer, and 130 nM DNA samples. The PCR conditions were as follows: 2 min at 95° C. followed by 40 cycles of 15 s at 95° C., 20 s at 58° C. and 20 s at 68° C.
(§2) Quantitative Real time PCR (qRT-PCR) was carried out in a spectrofluorimetric thermal cycler (Master cycler, epgradient S, Eppendorf). Calibration curves were performed in triplicate and a linear range of 6 orders of magnitude was obtained. Plasmids containing Dehalococcoides strain BAV1 16S rRNA genes were used as standards to construct general 16S rRNA genes and Dehalococcoides 16S rRNA genes calibration curves. The slopes of the calibration curves for general 16S rRNA genes and Dehalococcoides 16S rRNA genes were −3.46 and −3.94, and the Y intercepts were 38 and 44.2, respectively.
(§3) DNA Extraction and Quantitative Real-Time PCR. The BDI cultures and DehaloR^2 cultures were shaken vigorously first and then 10 ml of the mixed liquid was removed with a sterile syringe and dispensed into 10 1.5 ml micro centrifuge tubes. These micro centrifuge tubes were then centrifuged at 13,000 rpm for 15 min in order to make a pellet, and the pellet was used for DNA extraction. Qiagen DNeasy Blood & Tissue Kit with modifications to enhance lysis was used for DNA isolation from cultures. DNA samples were stored at −20° C.
(§4) Quantitative real-time PCR (qRT-PCR) was performed for enumeration of general 16S rRNA genes and Dehalococcoides 16S rRNA genes in BDI culture without TCC&TCS, BDI culture with 1.5 μM TCC, BDI culture with 35 μM TCS, D DehaloR̂2 culture without TCC&TCS, DehaloR^2 culture with 1.5 μM TCC and DehaloR̂2^2 culture with 35 μM TCS.
(§5) The primers used for Dehalococcoides 16S rRNA genes were Dhc1200F (5′-[…]-3′) and Dhc1271R (5′-CAACTTCATGCAGGCGGG-3′), and the probe was Dhc1240Pr (FAM-[…]/3-BHQ-1) (He et al., 2003b). The final volume of PCR reactions was 10 μL, and the final concentration of each chemical in a single reaction tube was: 1× RealMasterMix (Fisher Scientific, Pittsburgh, Pa.), 200 nM Probe, 700 nM each Primer, and 130 nM DNA samples. The PCR conditions were as follows: 2 min at 95° C. followed by 40 cycles of 15 s at 95° C., 20 s at 58° C. and 20 s at 68° C.
as §2, with “The qRT-PCR” for “Quantitative Real time PCR (qRT-PCR)”

Dehalococcoides [2] = assay: qRT-PCR of Dehalococcoides 16S rRNA genes in DehaloR̂2 cultures; assay type: cell-based; conditions: for effect on growth / gene copy number of Dehalococcoides in DehaloR̂2 cultures: 1.5 μM TCC or 35 μM TCS
Description: as §1, §2, §3, §4, §5
The qRT-PCR was carried out in a spectrofluorimetric thermal cycler (Master cycler, epgradient S, Eppendorf). […]

SMILES | effect on growth of Dehalococcoides in BDI cultures (Dehalococcoides [1]) | Dehalococcoides 16S rRNA gene copies, day 27 (Dehalococcoides [1]) | Dehalococcoides 16S rRNA gene copies, initial (Dehalococcoides [1]) | effect on growth / gene copy number of Dehalococcoides in DehaloR̂2 cultures (Dehalococcoides [2]) | Dehalococcoides 16S rRNA gene copies, day 22 (Dehalococcoides [2]; DehaloR̂2 with 1.5 μM TCC) | Dehalococcoides 16S rRNA gene copies, day 22 relative to initial (Dehalococcoides [2]; DehaloR̂2 with 1.5 μM TCC) [times] | Dehalococcoides 16S rRNA gene copies, initial (Dehalococcoides [2]; DehaloR̂2 with 1.5 μM TCC)
O=C(Nc1ccc(Cl)cc1)Nc1ccc(Cl)c(Cl)c1 [TCC, 3-(4-chlorophenyl)-1-(3,4-dichlorphenyl) urea] | significantly inhibited the growth of Dehalococcoides | 1.9×10^7 gene copies/ml | 6.1×10^7 gene copies/ml | did not exert any inhibitory effect on the growth of Dehalococcoides | 3.9×10^7 gene copies/ml | 11.6 | 3.3×10^6 gene copies/ml
Oc1cc(Cl)ccc1Oc1ccc(Cl)cc1Cl [TCS, 5-chloro-2-[2,4-dichloro-phenoxy]-phenol] | significantly inhibited the growth of Dehalococcoides | 9.4×10^6 gene copies/ml | 8.9×10^7 gene copies/ml | almost remained constant; also recorded: significantly inhibited the growth of Dehalococcoides |  |  | 
